Assay results published in PubChem BioAssay (NCI).
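At the GI50, growth is halved. The concentration for full growth arrest is given as TGI.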

Assays:
Assay in all cases: inhibition of tumour cell growth, NCI panel, 384-well format
786-0 renal = tested on: 786-0 renal
A498 renal = tested on: A498 renal
A549 NSCLC = tested on: A549 NSCLC
ACHN renal = tested on: ACHN renal
BT-549 breast = tested on: BT-549 breast
CAKI-1 renal = tested on: CAKI-1 renal
CCRF-CEM leukemia = tested on: CCRF-CEM leukemia
COLO 205 colon = tested on: COLO 205 colon
EKVX NSCLC = tested on: EKVX NSCLC
HCC-2998 colon = tested on: HCC-2998 colon
HCT-116 colon = tested on: HCT-116 colon
HCT-15 colon = tested on: HCT-15 colon
HL-60(TB) leukemia = tested on: HL-60(TB) leukemia
HOP-62 NSCLC = tested on: HOP-62 NSCLC
HOP-92 NSCLC = tested on: HOP-92 NSCLC
HS 578T breast = tested on: HS 578T breast
HT29 colon = tested on: HT29 colon
IGROV1 ovarian = tested on: IGROV1 ovarian
K-562 leukemia = tested on: K-562 leukemia
KM12 colon = tested on: KM12 colon
M14 melanoma = tested on: M14 melanoma
MALME-3M melanoma = tested on: MALME-3M melanoma
MCF7 breast = tested on: MCF7 breast
MDA-MB-435 melanoma = tested on: MDA-MB-435 melanoma
MDA-MB-468 breast = tested on: MDA-MB-468 breast
MOLT-4 leukemia = tested on: MOLT-4 leukemia
NCI-H226 lung = tested on: NCI-H226 lung
NCI-H23 lung = tested on: NCI-H23 lung
NCI-H322M lung = tested on: NCI-H322M lung
NCI-H460 NSCLC = tested on: NCI-H460 NSCLC
NCI-H522 lung = tested on: NCI-H522 lung
NCI/ADR-RES ovarian = tested on: NCI/ADR-RES ovarian
OVCAR-3 ovarian = tested on: OVCAR-3 ovarian
OVCAR-4 ovarian = tested on: OVCAR-4 ovarian
OVCAR-5 ovarian = tested on: OVCAR-5 ovarian
OVCAR-8 ovarian = tested on: OVCAR-8 ovarian
PC-3 prostate = tested on: PC-3 prostate
RPMI-8226 leukemia = tested on: RPMI-8226 leukemia
RXF 393 renal = tested on: RXF 393 renal
SF-268 CNS = tested on: SF-268 CNS
SF-295 CNS = tested on: SF-295 CNS
SF-539 CNS = tested on: SF-539 CNS
SK-MEL-28 melanoma = tested on: SK-MEL-28 melanoma
SK-MEL-5 melanoma = tested on: SK-MEL-5 melanoma
SK-OV-3 ovarian = tested on: SK-OV-3 ovarian
SN12C renal = tested on: SN12C renal
SNB-19 CNS = tested on: SNB-19 CNS
SNB-75 CNS = tested on: SNB-75 CNS
SW-620 colon = tested on: SW-620 colon
T-47D breast = tested on: T-47D breast
TK-10 renal = tested on: TK-10 renal
U251 glioblastoma = tested on: U251 glioblastoma
UACC-257 melanoma = tested on: UACC-257 melanoma
UO-31 renal = tested on: UO-31 renal

Question: How did the GI50 ([…]-0 renal) turn out when `COc1cc(C(=O)NC2CCN(C)CC2)ccc1Nc1ncc2c(n1)N(C1CCCC1)CC(F)(F)C(=O)N2C` was run?
Answer: 41 nM

Question: What about the TGI (786-0 renal) of the same molecule?
Answer: 1350 nM

Question: What about the GI50 (A498 renal) of the same molecule?
Answer: 106 nM

Question: And the TGI (A498 renal)?
Answer: 12.3 µM

Question: And the GI50 (A549 NSCLC)?
Answer: < 10 nM

Question: And the TGI (A549 NSCLC)?
Answer: 707 nM

Question: What about the GI50 (ACHN renal) of the same molecule?
Answer: 666 nM

Question: What about the TGI (ACHN renal) of the same molecule?
Answer: 14.1 µM

Question: And the GI50 (BT-549 breast)?
Answer: 11.3 nM

Question: And the TGI (BT-549 breast)?
Answer: 159 nM

Question: And the GI50 (CAKI-1 renal)?
Answer: 194 nM

Question: What about the TGI (CAKI-1 renal) of the same molecule?
Answer: 10.6 µM

Question: What about the GI50 (CCRF-CEM leukemia) of the same molecule?
Answer: < 10 nM

Question: What about the TGI (CCRF-CEM leukemia) of the same molecule?
Answer: < 10 nM

Question: What about the GI50 (COLO 205 colon) of the same molecule?
Answer: < 10 nM

Question: What about the TGI (COLO 205 colon) of the same molecule?
Answer: 10.7 µM

Question: And the GI50 (EKVX NSCLC)?
Answer: 79.3 nM

Question: And the TGI (EKVX NSCLC)?
Answer: 2700 nM

Question: And the GI50 (HCC-2998 colon)?
Answer: 11.6 nM

Question: What about the TGI (HCC-2998 colon) of the same molecule?
Answer: 39.6 nM

Question: What about the GI50 (HCT-116 colon) of the same molecule?
Answer: < 10 nM

Question: What about the TGI (HCT-116 colon) of the same molecule?
Answer: 1170 nM

Question: And the GI50 (HCT-15 colon)?
Answer: 219 nM

Question: And the TGI (HCT-15 colon)?
Answer: 1220 nM

Question: What about the GI50 (HL-60(TB) leukemia) of the same molecule?
Answer: < 10 nM

Question: And the TGI (HL-60(TB) leukemia)?
Answer: < 10 nM

Question: What about the GI50 (HOP-62 NSCLC) of the same molecule?
Answer: < 10 nM

Question: What about the TGI (HOP-62 NSCLC) of the same molecule?
Answer: 2210 nM

Question: What about the GI50 (HOP-92 NSCLC) of the same molecule?
Answer: 20.7 nM

Question: What about the TGI (HOP-92 NSCLC) of the same molecule?
Answer: 902 nM

Question: And the GI50 (HS 578T breast)?
Answer: < 10 nM

Question: And the TGI (HS 578T breast)?
Answer: 31.1 nM

Question: And the GI50 (HT29 colon)?
Answer: < 10 nM

Question: What about the TGI (HT29 colon) of the same molecule?
Answer: 21.5 nM

Question: And the GI50 (IGROV1 ovarian)?
Answer: 18.6 nM

Question: What about the TGI (IGROV1 ovarian) of the same molecule?
Answer: 2070 nM

Question: And the GI50 (K-562 leukemia)?
Answer: < 10 nM

Question: And the TGI (K-562 leukemia)?
Answer: 19.7 nM

Question: And the GI50 (KM12 colon)?
Answer: < 10 nM

Question: What about the TGI (KM12 colon) of the same molecule?
Answer: 11.2 µM

Question: What about the GI50 (M14 melanoma) of the same molecule?
Answer: 12.5 nM

Question: What about the TGI (M14 melanoma) of the same molecule?
Answer: 74.3 nM

Question: And the GI50 (MALME-3M melanoma)?
Answer: 29.5 nM

Question: And the TGI (MALME-3M melanoma)?
Answer: 1590 nM

Question: And the GI50 (MCF7 breast)?
Answer: < 10 nM

Question: And the TGI (MCF7 breast)?
Answer: 1440 nM

Question: And the GI50 (MDA-MB-435 melanoma)?
Answer: < 10 nM

Question: And the TGI (MDA-MB-435 melanoma)?
Answer: 12.2 nM

Question: And the GI50 (MDA-MB-468 breast)?
Answer: < 10 nM

Question: What about the TGI (MDA-MB-468 breast) of the same molecule?
Answer: < 10 nM

Question: And the GI50 (MOLT-4 leukemia)?
Answer: < 10 nM

Question: What about the TGI (MOLT-4 leukemia) of the same molecule?
Answer: < 10 nM

Question: And the GI50 (NCI-H226 lung)?
Answer: 1560 nM

Question: And the TGI (NCI-H226 lung)?
Answer: 6.19 µM

Question: And the GI50 (NCI-H23 lung)?
Answer: < 10 nM

Question: And the TGI (NCI-H23 lung)?
Answer: 20 nM

Question: What about the GI50 (NCI-H322M lung) of the same molecule?
Answer: 842 nM

Question: And the TGI (NCI-H322M lung)?
Answer: 11.8 µM

Question: What about the GI50 (NCI-H460 NSCLC) of the same molecule?
Answer: 11.5 nM

Question: And the TGI (NCI-H460 NSCLC)?
Answer: 35.5 nM

Question: And the GI50 (NCI-H522 lung)?
Answer: < 10 nM

Question: And the TGI (NCI-H522 lung)?
Answer: < 10 nM

Question: And the GI50 (NCI/ADR-RES ovarian)?
Answer: 1660 nM

Question: What about the TGI (NCI/ADR-RES ovarian) of the same molecule?
Answer: 3.98 µM

Question: What about the GI50 (OVCAR-3 ovarian) of the same molecule?
Answer: < 10 nM

Question: And the TGI (OVCAR-3 ovarian)?
Answer: < 10 nM

Question: What about the GI50 (OVCAR-4 ovarian) of the same molecule?
Answer: 1640 nM

Question: What about the TGI (OVCAR-4 ovarian) of the same molecule?
Answer: 7.57 µM

Question: And the GI50 (OVCAR-5 ovarian)?
Answer: 12.2 nM

Question: And the TGI (OVCAR-5 ovarian)?
Answer: 1290 nM

Question: And the GI50 (OVCAR-8 ovarian)?
Answer: 12.3 nM

Question: What about the TGI (OVCAR-8 ovarian) of the same molecule?
Answer: 29.3 nM

Question: What about the GI50 (PC-3 prostate) of the same molecule?
Answer: 33.8 nM

Question: What about the TGI (PC-3 prostate) of the same molecule?
Answer: 13.2 µM

Question: What about the GI50 (RPMI-8226 leukemia) of the same molecule?
Answer: 18.8 nM

Question: What about the TGI (RPMI-8226 leukemia) of the same molecule?
Answer: 43.7 nM

Question: What about the GI50 (RXF 393 renal) of the same molecule?
Answer: < 10 nM

Question: What about the TGI (RXF 393 renal) of the same molecule?
Answer: 35 nM

Question: What about the GI50 (SF-268 CNS) of the same molecule?
Answer: < 10 nM

Question: What about the TGI (SF-268 CNS) of the same molecule?
Answer: < 10 nM

Question: What about the GI50 (SF-295 CNS) of the same molecule?
Answer: 29.9 nM

Question: What about the TGI (SF-295 CNS) of the same molecule?
Answer: 134 nM

Question: What about the GI50 (SF-539 CNS) of the same molecule?
Answer: 17.2 nM

Question: What about the TGI (SF-539 CNS) of the same molecule?
Answer: 263 nM

Question: And the GI50 (SK-MEL-28 melanoma)?
Answer: 46.4 nM

Question: What about the TGI (SK-MEL-28 melanoma) of the same molecule?
Answer: 4.74 µM

Question: What about the GI50 (SK-MEL-5 melanoma) of the same molecule?
Answer: < 10 nM

Question: And the TGI (SK-MEL-5 melanoma)?
Answer: 180 nM

Question: And the GI50 (SK-OV-3 ovarian)?
Answer: 11.4 nM

Question: What about the TGI (SK-OV-3 ovarian) of the same molecule?
Answer: 494 nM

Question: And the GI50 (SN12C renal)?
Answer: 43.9 nM

Question: And the TGI (SN12C renal)?
Answer: 1750 nM

Question: What about the GI50 (SNB-19 CNS) of the same molecule?
Answer: < 10 nM

Question: And the TGI (SNB-19 CNS)?
Answer: 3.08 µM

Question: What about the GI50 (SNB-75 CNS) of the same molecule?
Answer: 57.4 nM

Question: What about the TGI (SNB-75 CNS) of the same molecule?
Answer: 7.49 µM

Question: And the GI50 (SW-620 colon)?
Answer: < 10 nM

Question: And the TGI (SW-620 colon)?
Answer: 97.4 nM

Question: What about the GI50 (T-47D breast) of the same molecule?
Answer: 28.2 nM

Question: And the TGI (T-47D breast)?
Answer: 365 nM

Question: What about the GI50 (TK-10 renal) of the same molecule?
Answer: 1090 nM

Question: What about the TGI (TK-10 renal) of the same molecule?
Answer: 4.95 µM

Question: What about the GI50 (U251 glioblastoma) of the same molecule?
Answer: < 10 nM

Question: And the TGI (U251 glioblastoma)?
Answer: 1440 nM

Question: And the GI50 (UACC-257 melanoma)?
Answer: 21.7 nM

Question: And the TGI (UACC-257 melanoma)?
Answer: 2060 nM

Question: What about the GI50 (UO-31 renal) of the same molecule?
Answer: 1310 nM

Question: And the TGI (UO-31 renal)?
Answer: 7.87 µM
